Results taken from PubChem BioAssay (NCI).
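A five-concentration, 48-hour dose response in 96-well plates underlies each endpoint, interpolated linearly between surrounding concentrations. At the GI50, growth is halved. TGI marks complete inhibition of growth.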

Legend:
Assay in all cases: growth of human tumour cells (NCI), 48 h
[1] = system: MDA-N
[2] = system: NCI/ADR-RES ovarian
[3] = system: LOX IMVI melanoma
[4] = system: A498 renal
[5] = system: SF-295 CNS
[6] = system: CCRF-CEM leukemia
[7] = system: OVCAR-5 ovarian
[8] = system: HT29 colon
[9] = system: MDA-MB-231 breast
[10] = system: HL-60(TB) leukemia

Structure (SMILES)	TGI [1] [µM]	TGI [2] [µM]	TGI [3] [µM]	TGI [4] [µM]	TGI [5] [µM]	TGI [6] [µM]	TGI [7] [µM]	TGI [8] [µM]	TGI [9] [µM]	TGI [10] [µM]	GI50 [2] [µM]	GI50 [3] [µM]	GI50 [4] [µM]	GI50 [5] [µM]	GI50 [6] [µM]	GI50 [7] [µM]	GI50 [8] [µM]	GI50 [9] [µM]	GI50 [10] [µM]
CCCCCCCCC/C=C1/CC(CO)(COC(=O)C2CCCCC2)OC1=O (centres undefined)	> 100	> 100	> 100	> 100	> 100	> 100	> 100	> 100	> 100	–	–	–	–	–	–	–	–	–	–
COc1ccccc1-c1nc[nH]c1-c1ccccc1OC	34.9	61.8	41.7	> 100	97.9	–	> 100	–	> 100	–	–	–	–	–	–	–	–	–	–
CN(C)c1ccc(/C=C(\C#N)C(=O)c2ccccc2)cc1Br	–	–	74.2	–	> 100	> 100	> 100	> 100	–	57.6	–	–	–	–	–	–	–	–	–
CC(C)c1cccc(C(C)C)c1NC(=O)/C(Cc1nc2ccc(Cl)cc2[nH]c1=O)=N\NC(=O)C[N+](C)(C)C	–	–	–	> 100	> 100	> 100	> 100	> 100	–	> 100	–	–	–	–	–	–	–	–	–
CC(=O)Nc1ccc(S(=O)(=O)Nc2cnc3ccccc3n2)cc1	–	–	> 100	> 100	> 100	> 100	> 100	> 100	–	> 100	–	–	–	–	–	–	–	–	–
O=C1C2Cc3ccccc3CN2C(=O)N1CN1CCCCC1 (centres undefined)	–	–	> 100	> 100	> 100	> 100	> 100	–	–	88.3	–	–	–	–	–	–	–	–	–
Nc1ccc(Oc2ccc(C34CC5CC(C3)CC(c3ccc(Oc6ccc(N)c(O)c6)cc3)(C5)C4)cc2)cc1O	–	6.12	3.11	36.1	5.1	–	4.3	5.16	3	–	–	–	–	–	–	–	–	–	–
CCOC1=C2N=C(C(CC)c3ccc(F)cc3)N=C2C(=O)c2ccccc21 (centres undefined)	–	–	29.7	–	63.7	> 100	> 100	45.3	–	> 73.7	–	–	–	–	–	–	–	–	–
COc1cc2ccnc3c2c(c1OC)N(C)C=C3	36.1	76.4	50.4	> 100	78.3	–	> 100	–	80.6	–	–	–	–	–	–	–	–	–	–
Nc1nc(Cl)cc(OCC2(CO)CCCCC2)n1	> 100	> 100	> 100	> 100	> 100	> 100	> 100	> 100	–	> 100	–	–	–	–	–	–	–	–	–
O=C(/C=C/c1cc2ccccc2[nH]c1=O)c1ccc(O)cc1	–	> 100	12.7	21.3	44	> 100	12.8	12.1	15	6.86	2.9	2.47	8.44	7.04	2.38	3.2	3.61	3.51	2.66
COC(=O)C12CCC(CC1=O)C2(C)C (centres undefined)	–	–	> 100	> 100	> 100	–	–	> 100	–	> 100	–	–	–	–	–	–	–	–	–
CCOC(=O)C1=C(C)NC(c2ccccc2)=C(C(=O)OCc2ccccc2)C1C#Cc1ccccc1 (centres undefined)	> 100	> 100	> 100	> 100	> 100	> 100	> 100	–	–	> 100	–	–	–	–	–	–	–	–	–
COc1cc(/C=[N+](\[O-])c2ccccc2Cl)ccc1OC(=S)S	> 100	76.4	> 100	> 100	> 100	–	> 100	> 100	> 100	47.6	–	–	–	–	–	–	–	–	–
CC(C)C(N=C1CC2CCC1(C(=O)Nc1ccccc1O)C2(C)C)c1ccccc1 (centres undefined)	–	–	> 10	> 10	> 10	> 10	> 10	> 10	–	> 10	–	–	–	–	–	–	–	–	–
C#CCN1C(=O)CN2C(Cl)(Cl)C2(c2ccccc2)c2cc(Cl)ccc21 (centres undefined)	–	–	> 100	–	> 100	> 100	> 100	> 100	–	–	–	–	–	–	–	–	–	–	–
CSCCC(NOC(=O)Cc1ccccc1)P(=O)(O)c1ccccc1 (centres undefined)	> 100	> 100	> 100	–	> 100	> 100	> 100	> 100	> 100	> 100	–	–	–	–	–	–	–	–	–
O=C(C#Cc1ccccc1)Nc1ccccc1CC(c1c[nH]c2ccccc12)c1c[nH]c2ccccc12	–	–	43.6	–	80	20	–	87.9	–	–	–	–	–	–	–	–	–	–	–
COc1ccc(/C=N/NC(=O)NCCNCCO)cc1	–	–	> 100	> 100	> 100	> 100	> 100	> 100	–	> 100	–	–	–	–	–	–	–	–	–

Structure (SMILES)	TGI [1] [µM]	TGI [2] [µM]	TGI [3] [µM]	TGI [4] [µM]	TGI [5] [µM]	TGI [6] [µM]	TGI [7] [µM]	TGI [8] [µM]	TGI [9] [µM]	TGI [10] [µM]	GI50 [2] [µM]	GI50 [3] [µM]	GI50 [4] [µM]	GI50 [5] [µM]	GI50 [6] [µM]	GI50 [7] [µM]	GI50 [8] [µM]	GI50 [9] [µM]	GI50 [10] [µM]
CCCN1CCN(c2ccc3nc(-c4ccc5nc(-c6ccc(OCC)cc6)[nH]c5c4)[nH]c3c2)CC1	–	> 100	–	3.01	–	3.58	3.36	–	–	3.55	2.84	–	1.3	–	0.629	1.88	–	–	1.08
N#Cc1ccccc1C#C/C=C\C#Cc1ccccn1	–	34.3	–	–	52.7	> 100	58.6	41.6	–	63.6	–	–	–	–	–	–	–	–	–
CC(C)C(C=O)C(O)(C(F)(F)F)C(F)(F)F (centres undefined)	> 100	> 100	> 100	> 100	> 100	–	> 100	> 100	> 100	> 100	–	–	–	–	–	–	–	–	–
C#CCn1c(=O)c2cc(OC)c(OC)cc2n(CC#C)c1=O	> 10	> 10	> 10	> 10	> 10	> 10	> 10	> 10	> 10	–	–	–	–	–	–	–	–	–	–
Cc1ccc2c(=O)cc(-c3ccccc3)[nH]c2n1	0.0999	0.31	> 100	–	–	–	> 100	0.194	22.8	–	–	–	–	–	–	–	–	–	–
O=C(O)Cn1cnc2c(=O)[nH]c(Nc3ccccc3)nc21	> 100	> 100	> 100	> 100	> 100	> 100	> 100	> 100	> 100	–	–	–	–	–	–	–	–	–	–
Cc1cc2nc3c(C)c4ccccc4c(C)n3c2cc1C	7.8	8.41	3.61	–	> 10	> 10	> 10	> 10	7.51	6.33	–	–	–	–	–	–	–	–	–
O=C(N/N=C/c1ccc(O)cc1)NNCCO	> 100	> 100	–	> 100	> 100	> 100	> 100	> 100	> 100	> 100	–	–	–	–	–	–	–	–	–
CC(=O)O[C@H]1C(=O)[C@@]2(C)C(C(OC(=O)c3ccccc3)[C@]3(O)CC(OC(=O)C(O)C(NC(=O)c4cccc(Cl)c4)c4ccccc4)C(C)=C1C3(C)C)[C@]1(OC(C)=O)CO[C@@H]1C[C@@H]2O (some centres undefined)	0.334	> 10	> 10	–	> 10	5.91	> 10	> 10	8.72	0.419	–	–	–	–	–	–	–	–	–
CCN(CC)CCNC(=O)C1COc2ccc(-c3cc(=O)c4ccccc4o3)cc2O1 (centres undefined)	–	45.8	31.7	30.3	39.3	68.6	56.7	34.6	–	30.8	–	–	–	–	–	–	–	–	–
CCC(/C(=N/NC(=O)C[N+](C)(C)C)c1ccccc1)C1OC(=O)c2ccccc21 (centres undefined)	–	–	> 100	–	> 100	> 100	> 100	> 100	–	> 100	–	–	–	–	–	–	–	–	–
CCCC(CCC(=O)O)(CCC(=O)O)[N+](=O)[O-]	> 100	> 100	–	–	> 100	–	> 100	> 100	> 100	> 100	–	–	–	–	–	–	–	–	–
N#Cc1cc([N+](=O)[O-])ccc1NC(=O)C(=O)Nn1c(=S)[nH]c2ccccc2c1=O	–	–	> 100	> 100	> 100	> 100	> 100	> 100	–	> 100	–	–	–	–	–	–	–	–	–
Clc1ccc(CCNCCNC2(c3cc4ccccc4s3)CCCCC2)cc1Cl	3.33	3.47	3.36	3.17	3.04	5.39	3.64	3.59	3.24	–	–	–	–	–	–	–	–	–	–
CNC(=O)/C(C#N)=C(\N)N1CCCC1	> 100	> 100	–	> 100	–	> 100	> 100	> 100	> 100	> 100	–	–	–	–	–	–	–	–	–
Cc1nc2cc3[nH]c4ccccc4c(=O)c3cc2s1	–	–	–	> 100	> 100	> 100	> 100	> 100	–	> 100	–	–	–	–	–	–	–	–	–
Nc1nc2c(nnn2C2C=C(CO)C(O)C2O)c(=O)[nH]1 (centres undefined)	–	–	> 100	> 100	> 100	> 100	> 100	> 100	–	–	–	–	–	–	–	–	–	–	–
CCN1CC2(CO)CCC(OC)C34C5CC6C(OC)CC(O)(C5C6OC)C(O)(C(OC)C23)C14 (centres undefined)	–	> 375	> 375	> 375	> 375	> 375	> 209	> 375	–	> 375	–	–	–	–	–	–	–	–	–
COc1ccc(CNCCN2C(=O)c3ccc4c5c(ccc(c35)C2=O)C(=O)N(CCNCc2ccc(OC)c(OC)c2OC)C4=O)c(OC)c1OC	–	–	–	–	–	50	–	0.589	2.37	–	–	–	–	–	0.273	–	0.164	0.239	–
